# Assay results taken from patent US20250197864A1, “LNCRNA TRANSCRIPTS IN MELANOMAGENESIS” (The Regents of the University of California, priority 2021, published 2025).
# System: gene expression in D04 melanoma cells
# Assay: RNA-Seq differential expression analysis (DESeq2)
# Assay type: cell-based, human
# Procedure: Total RNA was isolated using the RNeasy mini Kit (QIAGEN) following the manufacturer's protocol. Quality check for extracted RNA was done using 2100 Bioanalyzer (Agilent Technologies, USA) or Tapestation System (Agilent Technologies, USA). […] For samples used for identification of MAPK-responsive lncRNAs, paired-end, 101-bp sequencing was performed by Centrillion Genomic Services (Centrillion Biosciences, USA) on an Illumina HiSeq 2000. For DE gene analysis of ASO-transfected D04 samples, paired-end, 2×150-bp sequencing was performed by Genewiz (USA) on a Illumina HiSeq.
# Sequence reads were aligned to the human genome (hg19) using TopHat (Version 2.0.11).
# Differential expression (DE) analysis was done using DESeq2. Differentially expressed genes were defined by more than 1.5-fold changes (log 2 >0.58 or <−0.58) in expression with FDR<0.05. GO term analysis was done using DAVID Functional Annotation Clustering analysis.
# To examine the biomolecular changes upon TRASH-inhibition in melanoma, D04 cells were treated with TRASH-ASOs (SEQ ID NO:15) and Control-ASOs and RNA was extracted and used for RNA-Seq. […] These GO terms consisted of genes encoding growth factors, tyrosine kinases, G protein coupled receptor subunits, and collagen subunits. Scatter plot diagram showing differential gene expression after TRASH-ASO treatment compared to Control-ASO treatment. (cut-off for significance was adjusted p-value <0.05). Data was obtained from RNA-Seq of D04 melanoma cells, treatment period was three days. (FIG. 5c)
sequence,measurement,setting,value
"GACTGGAGATAATTAA (gapmer, pattern not given here) [SEQ ID NO: 15, GapmeR ASO targeting AC004540.4 (TRASH), exon region of both isoforms; used for in vitro experiments]",log2FoldChange,PPM1L (ENSG00000163590),−0.7017
same,log2FoldChange,PRICKLE2 (ENSG00000163637),−0.6639
same,log2FoldChange,PRR5L (ENSG00000135362),−0.6328
same,log2FoldChange,PTPRN2 (ENSG00000155093),2.844
same,log2FoldChange,PTPRR (ENSG00000153233),1.4591
same,log2FoldChange,PURPL (ENSG00000250337),−0.6494
same,log2FoldChange,PYROXD2 (ENSG00000119943),−0.6602
same,log2FoldChange,RAB11FIP3 (ENSG00000090565),−0.5869
same,log2FoldChange,RAB26 (ENSG00000167964),−0.6129
same,log2FoldChange,RAB39B (ENSG00000155961),2.06
same,log2FoldChange,RASEF (ENSG00000165105),1.674
same,log2FoldChange,RASL10B (ENSG00000270885),−0.6526
same,log2FoldChange,RBMS3 (ENSG00000144642),−0.6061
same,log2FoldChange,RFTN2 (ENSG00000162944),−0.6802
same,log2FoldChange,RGS4 (ENSG00000117152),1.366
same,log2FoldChange,RGS5 (ENSG00000143248),−0.6262
same,log2FoldChange,RINL (ENSG00000187994),1.242
same,log2FoldChange,ROBO4 (ENSG00000154133),2.692
same,log2FoldChange,RPLPOP2 (ENSG00000243742),1.744
same,log2FoldChange,RUNDC3A (ENSG00000108309),1.302
same,log2FoldChange,S1PR2 (ENSG00000267534),−0.6769
same,log2FoldChange,S100A3 (ENSG00000188015),−0.6246
same,log2FoldChange,SAMD5 (ENSG00000203727),−0.6969
same,log2FoldChange,SAMD9L (ENSG00000177409),−0.5978
same,log2FoldChange,SBSN (ENSG00000189001),1.621
same,log2FoldChange,SBSPON (ENSG00000164764),−0.705
same,log2FoldChange,SCG2 (ENSG00000171951),−0.6659
same,log2FoldChange,SCG5 (ENSG00000166922),1.621
same,log2FoldChange,SCN1B (ENSG00000105711),−0.608
same,log2FoldChange,SCN4A (ENSG00000007314),2.301
same,log2FoldChange,SDCCAG8 (ENSG00000054282),−0.7066
same,log2FoldChange,SERPINB7 (ENSG00000166396),1.415
same,log2FoldChange,SERPINI2 (ENSG00000114204),2.645
same,log2FoldChange,SH2D1B (ENSG00000198574),1.495
same,log2FoldChange,SHROOM4 (ENSG00000158352),−0.6228
same,log2FoldChange,SIGLEC15 (ENSG00000197046),2.101
same,log2FoldChange,SIL1 (ENSG00000120725),−0.6521
same,log2FoldChange,SLAMF7 (ENSG00000026751),2.821
same,log2FoldChange,SLAMF9 (ENSG00000162723),2.487
same,log2FoldChange,SLC45A2 (ENSG00000164175),−0.6697
same,log2FoldChange,SLCO4C1 (ENSG00000173930),−0.6425
same,log2FoldChange,SOCS2 (ENSG00000120833),−0.5921
same,log2FoldChange,SOCS3 (ENSG00000184557),−0.6206
same,log2FoldChange,SOX2 (ENSG00000181449),−0.7006
same,log2FoldChange,SPANXC (ENSG00000198573),1.331
same,log2FoldChange,SPINK1 (ENSG00000164266),3.07
same,log2FoldChange,SPINT2 (ENSG00000167642),2.192
same,log2FoldChange,SPRY2 (ENSG00000136158),−0.6059
same,log2FoldChange,SPRY4 (ENSG00000187678),−0.6537
same,log2FoldChange,ST6GALNAC2 (ENSG00000070731),−0.6963
same,log2FoldChange,ST6GALNAC5 (ENSG00000117069),−0.6397
same,log2FoldChange,STRA6 (ENSG00000137868),−0.6369
same,log2FoldChange,STX17-AS1 (ENSG00000255145),1.8172
same,log2FoldChange,SULT1A1 (ENSG00000196502),−0.7045
same,log2FoldChange,SYNGR1 (ENSG00000100321),−0.6288
same,log2FoldChange,SYT11 (ENSG00000132718),1.326
same,log2FoldChange,SYT16 (ENSG00000139973),1.62
same,log2FoldChange,TEK (ENSG00000120156),−0.6347
same,log2FoldChange,TENM1 (ENSG00000009694),−0.7059
same,log2FoldChange,TFAP2E (ENSG00000116819),−0.6597
same,log2FoldChange,TGFB3 (ENSG00000119699),−0.6408
same,log2FoldChange,TGFBR3 (ENSG00000069702),−0.639
same,log2FoldChange,THSD4 (ENSG00000187720),−0.6139
same,log2FoldChange,TINAGL1 (ENSG00000142910),1.287
same,log2FoldChange,TM4SF1 (ENSG00000169908),1.389
same,log2FoldChange,TMC8 (ENSG00000167895),1.259
same,log2FoldChange,TMEM117 (ENSG00000139173),−0.6405
same,log2FoldChange,TMEM135 (ENSG00000166575),−0.6788
same,log2FoldChange,TNFRSF11B (ENSG00000164761),−0.5845
same,log2FoldChange,TNFSF8 (ENSG00000106952),1.66
same,log2FoldChange,TNFSF10 (ENSG00000121858),−0.6562
same,log2FoldChange,TNFSF11 (ENSG00000120659),−0.6111
same,log2FoldChange,TOM1L2 (ENSG00000175662),−0.6126
same,log2FoldChange,TRIB2 (ENSG00000071575),−0.6666
same,log2FoldChange,TRIML2 (ENSG00000179046),2.081
same,log2FoldChange,TSPAN9 (ENSG00000011105),−0.6484
same,log2FoldChange,VIPR2 (ENSG00000106018),1.91
same,log2FoldChange,VWA1 (ENSG00000179403),−0.6674
same,log2FoldChange,VWCE (ENSG00000167992),1.639
same,log2FoldChange,XAF1 (ENSG00000132530),−0.6048
same,log2FoldChange,XG (ENSG00000124343),2.256
same,log2FoldChange,ZC3H6 (ENSG00000188177),−0.6449
same,log2FoldChange,ZDHHC11 (ENSG00000188818),1.322
same,log2FoldChange,ZFYVE28 (ENSG00000159733),−0.6436
same,log2FoldChange,ZHX2 (ENSG00000178764),−0.5891
same,log2FoldChange,ZNF165 (ENSG00000197279),1.226
same,log2FoldChange,ZNF185 (ENSG00000147394),1.367
same,log2FoldChange,ZSCAN31 (ENSG00000235109),−0.6972
